In patent EP0432983A2 (priority 1989, dated 1991):
≈ marks a conversion by molar mass, not a printed value.

What was measured:
[1] = tested on: HSV-1 (herpes simplex virus, type 1); experiment: General anti-viral assay, HSV-1 in CV-1 cells (plaque reduction); type: cell-based; details: Human alphaherpesvirus 1; CV-1/ HSV-1; read-out: IC50 µg/ml approx
[2] = tested on: VSV (Vesicular Stomatitis Virus); experiment: microbe, parasite or virus in culture; type: cell-based; details: BHK, read-out: IC50 µg/ml approx
[3] = tested on: HT-29 (human colon carcinoma); experiment: General anti-tumour assay, HT-29; type: cell-based
Experimental: (§1) With compounds AH-3, AH-4 and AH-5, four general anti-tumour assays and two cytotoxicity assays were performed. Current screening protocols were employed using test substance diluted as above and at varying concentrations. Tests were performed against the tumour cells P-388 (mouse DBA/2 lymphoid neoplasm), A-549 (human lung carcinoma), HT-29 (human colon carcinoma) and MCF-7 (human breast carcinoma) and for the cytotoxicity assays against CV-1 (monkey kidney fibroblast) and BHK (Hamster kidney fibroblast).
(§2) Scoring is performed as follows: (-) no activity - the number of cells is equal to the control of growth, 0-40% cell inhibition (+) low activity - numbers of cells are reduced by approx 50-60% (++) good activity - numbers of cells are reduced by approx 70-90% (+++) very good activity - there is 100% cell inhibition [(+) is the approximate IC₅₀]

[4] = tested on: CV-1 (monkey kidney fibroblast); experiment: Cytotoxicity assay, CV-1; type: cell-based
Experimental: as §1, §2

[5] = tested on: BHK (Hamster kidney fibroblast); experiment: Cytotoxicity assay, BHK; type: cell-based
Experimental: as §1, §2

[6] = tested on: MCF-7 (human breast carcinoma); experiment: General anti-tumour assay, MCF-7; type: cell-based
Experimental: as §1, §2

[7] = tested on: P-388 (mouse DBA/2 lymphoid neoplasm); experiment: General anti-tumour assay, P-388; type: cell-based
Experimental: as §1, §2

[8] = tested on: A-549 (human lung carcinoma); experiment: General anti-tumour assay, A-549; type: cell-based
Experimental: as §1, §2

**Q.** How did the IC50 [1] turn out when CC(C)=CC1CC(C)C2CCC(C)c3c4c(c(C)c1c32)OCO4 (stereo not drawn) [AH-5, Helioporin E] was run?
**A.** Its IC50 is over 40 µg/mL.

**Q.** What about the IC50 [2] of the same compound?
**A.** The IC50 was over 40 µg/mL.

**Q.** What about the “activity (cell inhibition)” value ([3]; HT-29, TEST CONC (µg) 0.2) of the same compound?
**A.** Its value is “- ((-) no activity - the number of cells is equal to the control of growth, 0-40% cell inhibition)”.

**Q.** And the “activity (cell inhibition)” value ([3]; HT-29, TEST CONC (µg) 0.5)?
**A.** Its value is “- ((-) no activity - the number of cells is equal to the control of growth, 0-40% cell inhibition)”.

**Q.** What about the “activity (cell inhibition)” value ([3]; HT-29, TEST CONC (µg) 1) of the same compound?
**A.** Its value is “- ((-) no activity - the number of cells is equal to the control of growth, 0-40% cell inhibition)”.

**Q.** What about the “activity (cell inhibition)” value ([3]; HT-29, TEST CONC (µg) 2) of the same compound?
**A.** Its value is “- ((-) no activity - the number of cells is equal to the control of growth, 0-40% cell inhibition)”.

**Q.** What about the “activity (cell inhibition)” value ([3]; HT-29, TEST CONC (µg) 5) of the same compound?
**A.** Its value is “+ ((+) low activity - numbers of cells are reduced by approx 50-60%)”.

**Q.** And the “activity (cell inhibition)” value ([3]; HT-29, TEST CONC (µg) 10)?
**A.** Its value is “++ ((++) good activity - numbers of cells are reduced by approx 70-90%)”.

**Q.** What about the “activity (cell inhibition)” value ([3]; HT-29, TEST CONC (µg) 20) of the same compound?
**A.** Its value is “+++ ((+++) very good activity - there is 100% cell inhibition)”.

**Q.** And the IC50 ([3]; Homo sapiens, HT-29, read-out: IC50 µg/ml approx)?
**A.** Its IC50 is about 5 µg/mL (≈ 16 µM).

**Q.** What about the “activity (cell inhibition)” value ([4]; CV-1, TEST CONC (µg) 0.2) of the same compound?
**A.** Its value is “- ((-) no activity - the number of cells is equal to the control of growth, 0-40% cell inhibition)”.

**Q.** And the “activity (cell inhibition)” value ([4]; CV-1, TEST CONC (µg) 0.5)?
**A.** Its value is “- ((-) no activity - the number of cells is equal to the control of growth, 0-40% cell inhibition)”.

**Q.** And the “activity (cell inhibition)” value ([4]; CV-1, TEST CONC (µg) 1)?
**A.** Its value is “- ((-) no activity - the number of cells is equal to the control of growth, 0-40% cell inhibition)”.

**Q.** What about the “activity (cell inhibition)” value ([4]; CV-1, TEST CONC (µg) 2) of the same compound?
**A.** Its value is “- ((-) no activity - the number of cells is equal to the control of growth, 0-40% cell inhibition)”.

**Q.** And the “activity (cell inhibition)” value ([4]; CV-1, TEST CONC (µg) 5)?
**A.** The value was “- ((-) no activity - the number of cells is equal to the control of growth, 0-40% cell inhibition)”.

**Q.** And the “activity (cell inhibition)” value ([4]; CV-1, TEST CONC (µg) 10)?
**A.** Its value is “- ((-) no activity - the number of cells is equal to the control of growth, 0-40% cell inhibition)”.

**Q.** And the “activity (cell inhibition)” value ([4]; CV-1, TEST CONC (µg) 20)?
**A.** The value was “++ ((++) good activity - numbers of cells are reduced by approx 70-90%)”.

**Q.** What about the IC50 ([4]; Primates, CV-1, read-out: IC50 µg/ml approx) of the same compound?
**A.** Its IC50 is 10 to 20 µg/mL (≈ 32 to 64 µM).

**Q.** What about the “cytotoxicity (inhibition zone on the cell sheet)” value (BHK cells) of the same compound?
**A.** The value was 0-.

**Q.** And the IC50 ([5]; Mesocricetus auratus, read-out: IC50 µg/ml approx)?
**A.** The IC50 was about 5 µg/mL (≈ 16 µM).

**Q.** And the “activity (cell inhibition)” value ([5]; TEST CONC (µg) 0.2)?
**A.** The value was “- ((-) no activity - the number of cells is equal to the control of growth, 0-40% cell inhibition)”.

**Q.** And the “activity (cell inhibition)” value ([5]; TEST CONC (µg) 0.5)?
**A.** The value was “- ((-) no activity - the number of cells is equal to the control of growth, 0-40% cell inhibition)”.

**Q.** And the “activity (cell inhibition)” value ([5]; TEST CONC (µg) 1)?
**A.** Its value is “- ((-) no activity - the number of cells is equal to the control of growth, 0-40% cell inhibition)”.

**Q.** And the “activity (cell inhibition)” value ([5]; TEST CONC (µg) 2)?
**A.** Its value is “- ((-) no activity - the number of cells is equal to the control of growth, 0-40% cell inhibition)”.

**Q.** And the “activity (cell inhibition)” value ([5]; TEST CONC (µg) 5)?
**A.** Its value is “+ ((+) low activity - numbers of cells are reduced by approx 50-60%)”.

**Q.** What about the “activity (cell inhibition)” value ([5]; TEST CONC (µg) 10) of the same compound?
**A.** The value was “+++ ((+++) very good activity - there is 100% cell inhibition)”.

**Q.** And the “activity (cell inhibition)” value ([5]; TEST CONC (µg) 20)?
**A.** Its value is “+++ ((+++) very good activity - there is 100% cell inhibition)”.

**Q.** And the IC50 ([6]; Homo sapiens, MCF7, MCF-7, read-out: IC50 µg/ml approx)?
**A.** Its IC50 is about 10 µg/mL (≈ 32 µM).

**Q.** And the “activity (cell inhibition)” value ([6]; MCF-7, TEST CONC (µg) 0.2)?
**A.** The value was “- ((-) no activity - the number of cells is equal to the control of growth, 0-40% cell inhibition)”.

**Q.** What about the “activity (cell inhibition)” value ([6]; MCF-7, TEST CONC (µg) 0.5) of the same compound?
**A.** The value was “- ((-) no activity - the number of cells is equal to the control of growth, 0-40% cell inhibition)”.

**Q.** And the “activity (cell inhibition)” value ([6]; MCF-7, TEST CONC (µg) 1)?
**A.** The value was “- ((-) no activity - the number of cells is equal to the control of growth, 0-40% cell inhibition)”.

**Q.** And the “activity (cell inhibition)” value ([6]; MCF-7, TEST CONC (µg) 2)?
**A.** Its value is “- ((-) no activity - the number of cells is equal to the control of growth, 0-40% cell inhibition)”.

**Q.** And the “activity (cell inhibition)” value ([6]; MCF-7, TEST CONC (µg) 5)?
**A.** The value was “- ((-) no activity - the number of cells is equal to the control of growth, 0-40% cell inhibition)”.

**Q.** What about the “activity (cell inhibition)” value ([6]; MCF-7, TEST CONC (µg) 10) of the same compound?
**A.** Its value is “+ ((+) low activity - numbers of cells are reduced by approx 50-60%)”.

**Q.** What about the “activity (cell inhibition)” value ([6]; MCF-7, TEST CONC (µg) 20) of the same compound?
**A.** Its value is “+++ ((+++) very good activity - there is 100% cell inhibition)”.

**Q.** What about the IC50 ([7]; Mus musculus, P388, P-388, read-out: IC50 µg/ml approx) of the same compound?
**A.** Its IC50 is 5 to 10 µg/mL (≈ 16 to 32 µM).

**Q.** And the “activity (cell inhibition)” value ([7]; P-388, TEST CONC (µg) 0.2)?
**A.** Its value is “- ((-) no activity - the number of cells is equal to the control of growth, 0-40% cell inhibition)”.

**Q.** And the “activity (cell inhibition)” value ([7]; P-388, TEST CONC (µg) 0.5)?
**A.** The value was “- ((-) no activity - the number of cells is equal to the control of growth, 0-40% cell inhibition)”.

**Q.** What about the “activity (cell inhibition)” value ([7]; P-388, TEST CONC (µg) 1) of the same compound?
**A.** The value was “- ((-) no activity - the number of cells is equal to the control of growth, 0-40% cell inhibition)”.

**Q.** And the “activity (cell inhibition)” value ([7]; P-388, TEST CONC (µg) 2)?
**A.** The value was “- ((-) no activity - the number of cells is equal to the control of growth, 0-40% cell inhibition)”.

**Q.** What about the “activity (cell inhibition)” value ([7]; P-388, TEST CONC (µg) 5) of the same compound?
**A.** The value was “- ((-) no activity - the number of cells is equal to the control of growth, 0-40% cell inhibition)”.

**Q.** And the “activity (cell inhibition)” value ([7]; P-388, TEST CONC (µg) 10)?
**A.** Its value is “++ ((++) good activity - numbers of cells are reduced by approx 70-90%)”.

**Q.** And the “activity (cell inhibition)” value ([7]; P-388, TEST CONC (µg) 20)?
**A.** The value was “++ ((++) good activity - numbers of cells are reduced by approx 70-90%)”.

**Q.** And the “activity (cell inhibition)” value ([8]; A-549, TEST CONC (µg) 0.2)?
**A.** Its value is “- ((-) no activity - the number of cells is equal to the control of growth, 0-40% cell inhibition)”.

**Q.** And the “activity (cell inhibition)” value ([8]; A-549, TEST CONC (µg) 0.5)?
**A.** Its value is “- ((-) no activity - the number of cells is equal to the control of growth, 0-40% cell inhibition)”.

**Q.** And the “activity (cell inhibition)” value ([8]; A-549, TEST CONC (µg) 1)?
**A.** The value was “- ((-) no activity - the number of cells is equal to the control of growth, 0-40% cell inhibition)”.

**Q.** What about the “activity (cell inhibition)” value ([8]; A-549, TEST CONC (µg) 2) of the same compound?
**A.** Its value is “- ((-) no activity - the number of cells is equal to the control of growth, 0-40% cell inhibition)”.

**Q.** What about the “activity (cell inhibition)” value ([8]; A-549, TEST CONC (µg) 5) of the same compound?
**A.** Its value is “- ((-) no activity - the number of cells is equal to the control of growth, 0-40% cell inhibition)”.

**Q.** And the “activity (cell inhibition)” value ([8]; A-549, TEST CONC (µg) 10)?
**A.** The value was “- ((-) no activity - the number of cells is equal to the control of growth, 0-40% cell inhibition)”.

**Q.** And the “activity (cell inhibition)” value ([8]; A-549, TEST CONC (µg) 20)?
**A.** The value was “- ((-) no activity - the number of cells is equal to the control of growth, 0-40% cell inhibition)”.

**Q.** And the IC50 ([8]; Homo sapiens, A549, A-549, read-out: IC50 µg/ml approx)?
**A.** The IC50 was over 20 µg/mL.
